These results are taken from a melting point compilation (Tetko et al.; mined from patent text by program, amines drawn as free bases though some values may be those of a salt).

Molecules are shown by their SMILES.

In the case of `CCOc1ccc2nc(NC(=O)CN3CCN(C(=O)CCCCCCC(=O)N(O)C(C)=O)CC3)sc2c1`, the melting point – broadly, the temperature of the solid-liquid transition – is 98 to 103 °C. For the molecule `CCCSC1(C(F)(F)F)CN(C2CC2)C(=O)Nc2ccc(Cl)cc21` (configuration not stated), the melting point is 150 to 151 °C. On to `COc1cc2ncc(C#N)c(Nc3ccc4[nH]c(C)nc4c3)c2cc1OC`, for which the melting point stood at 207 °C. Turning to `CCc1nc2c(N)nc3cc(OCCCOc4ccc5c(c4)nc(N)c4nc(CC)sc45)ccc3c2s1`, the melting point lay within 242 to 243 °C. Under `CCCOc1ccc2c(c1)C(N(C)S(C)(=O)=O)C(O)C(C)(C)O2` (configuration not stated) stands 149 to 151 °C. As to `Cc1[nH]cnc1-c1cc(C(C)(C)C)c(O)c(C(C)(C)C)c1`, the melting point is 207 to 209 °C.

`NC(=O)c1cc2n(n1)-c1ccc(Cl)cc1C(c1ccccc1)=NC2` gave a melting point of 216 to 218 °C. On to `c1ccc2c(c1)nc1n2CCCSC1`, for which the melting point fell in the range of 155 to 157 °C. `CCOc1cc([C@@H](CS(C)(=O)=O)N2Cc3cccc(NCC(C)C)c3C2=O)ccc1OC` registered a melting point of 122 to 124 °C. The same measure for `COc1ccc(CN=Nc2c(O)c(O)c(N=NCc3ccc(OC)cc3)c3ccccc23)cc1`: 245 to 251 °C; for `COc1ccc(C=C2N=C(c3ccccc3I)OC2=O)cc1OC`: 200 to 202 °C; for `CCOCc1nc2c(N)nc3cc(CCCN4CCOCC4)ccc3c2n1CC(C)(C)O`: 132 to 133 °C. Turning to `O=C(Nc1ccccc1F)Nc1cc(Cl)ccc1C(=O)O`, the melting point lay within 195 to 197 °C. The molecule `CC1CCC(=NNc2ccccc2)c2ncc(Br)c(=O)n21` (configuration not stated) had a melting point of 190 to 192 °C.

For `CNC(=O)C1=CC(CF)(CF)Oc2ccc(C(F)(F)F)cc21`, the melting point lay in the range of 162 to 164 °C. `CCn1cc(C(=O)O)c(=O)c2cc(F)c(N3CCNC(c4cc5ccccc5o4)C3)cc21` (configuration not stated) had a melting point of 226 to 228 °C. Under `ON=c1cc(-c2cc3cccn3cn2)oc2ccc(OCCOc3ccncc3)cc12` stands 198 to 200 °C; under `Cc1cc(C2(C(F)(F)F)CC(c3ccc(F)cc3)=NO2)ccc1N` (configuration not stated), 108 to 110 °C.

`Cc1cn(-c2ccc(N3C[C@H](CO)OC3=O)cc2F)nn1`: the melting point fell in the range of 190 to 192 °C. `Cc1cc([N+](=O)[O-])c(C(=O)OC(C)C)cc1Oc1ccc(OC(F)(F)F)cc1` yielded a melting point of 47 to 49 °C. The molecule `O=Cc1cccc2c1OC(c1ccccc1)CC2=O` (configuration not stated) had a melting point of 112 to 113 °C.

With `Cc1cccc(Nc2ncnc3cnc(NC4CCN(C#N)CC4)nc23)c1`, the melting point lay in the range of 178 to 181 °C. `c1ccn(Nc2ccncn2)c1` came in with a melting point of 134 to 136 °C. In the case of `Cc1nc2ccc(Cl)cc2c(=O)n1C1CCC(=O)NC1=O` (configuration not stated), the melting point was 276 to 278 °C. For the molecule `CCOC(=O)c1ncc2[nH]c3cccc(OCc4cccc(F)c4)c3c2c1COC`, the melting point was found to be 188 °C. Regarding `COc1ccc(C(=O)Cc2c(Cl)cncc2Cl)c2c1OC1(CCCC1)O2`, the melting point lay within 110 to 112 °C. Under `CCOC(=O)/C=C/c1ccc(C=Cc2nc(-c3ccco3)oc2C)cc1` stands 123 to 124 °C; under `CCOC(=O)Nc1nc(CC(=O)OC)ns1`, 110 to 112 °C; under `CC(C)(C)c1cc(C2CC(=O)N(CCCCCCN3C(=O)CC(c4cc(C(C)(C)C)c(O)c(C(C)(C)C)c4)C3=O)C2=O)cc(C(C)(C)C)c1O` (configuration not stated), 190 to 193 °C.

`Cn1c(-c2ccc(-c3ccncc3)cc2)cnc1[C@H](Cc1ccccn1)N(C=O)c1cc2cc(Cl)ccc2o1` returned a melting point of 135 to 140 °C. The molecule `COc1ccnc2c1c(C(C)=O)cn2C` registered a melting point of 79 to 81 °C. As for `COc1ccc(C(=O)Nc2ccccc2)cc1NS(=O)(=O)c1ccc2ccccc2c1`, the melting point was in the range of 223 to 225 °C. Under `COC(=O)NNC(=O)c1ccc(Cl)cc1` stands 160 °C; under `CCCCCC(O)CCCN(Cc1cccc(C=CC(=O)O)c1)S(C)(=O)=O` (configuration not stated), 105 °C.

For the molecule `CN1C(=O)CCC1(O)c1ccc(Cl)c(S(=O)(=O)Nc2cc(C(C)(C)C)c(O)c(C(C)(C)C)c2)c1` (configuration not stated), the melting point is 120 to 130 °C. Molecule `COCOc1ccc(Cc2cccc(-c3c(O)c4ccc(Cl)cc4[nH]c3=O)c2)cc1` registered a melting point of 261 to 264 °C. In turn, `Cc1ccc(-c2coc(-c3ccc4c(c3)C(C)(C)CCC4(C)C)c2)cc1` displayed a melting point of 155 to 157 °C.

In turn, `O=C(c1ccccc1)N1CCN(c2cncc(Cl)n2)CC1` came in with a melting point of 104 to 105 °C. In turn, `Nc1ccccc1C(=O)NCCCn1ccnc1` yielded a melting point of 107 to 110 °C. `Fc1cc(/C=C/c2nc(COc3ccc(CCCCn4ccnn4)cc3)co2)ccc1Cl` registered a melting point of 146 to 149 °C. For `CC1(C)CC(=C(c2ccc(O)cc2)c2ccc(I)cc2)CC(C)(C)C1`, the melting point lay within 148 to 149 °C. Molecule `COc1ccc2c(=O)n3cccc3oc2c1` displayed a melting point of 128 to 129 °C. Regarding `CCOC(=O)c1c(C(C)C)nc2c(c(C)nn2C)c1-c1ccc(F)cc1`, the melting point is 68 to 71 °C. With `CC(C)(C)C(=O)C(C(c1ccc(Cl)cc1)n1cncn1)n1cncn1` (configuration not stated), the melting point was in the range of 157 to 161 °C. Regarding `c1ccc(Sc2ccc(-c3ccc(Sc4ccccc4)cc3)cc2)cc1`, the melting point was 116 to 117 °C. `COc1ccccc1N1CCN(Cc2ccc(O)cc2)CC1` showed a melting point of 172 °C.

Consider `CN(C)CC(=O)NCc1cccc(-c2cc3c(Nc4ccc(F)c(Cl)c4)ncnc3[nH]2)c1`, for which the melting point fell in the range of 272 to 273 °C. The same measure for `O=C(c1ccccc1)N1CC(=O)N2CCc3ccccc3C2C1` (configuration not stated): 162 to 163 °C; for `COCCN(CCOC)c1ccc(NC(=O)c2ccc(C)c(Nc3nccc(-c4cccnc4)n3)c2)cc1C(F)(F)F`: 156 to 157 °C. Under `CN1C(=O)C(C)(Cc2ccccc2)N(C)C(=O)C1=Cc1cccnc1Cl` (configuration not stated) stands 146 °C; under `CC(=C(C#N)C(N)=O)c1ccc(Cl)cc1`, 165 to 167 °C; under `Cc1cc(C(Cc2ccc(CCCc3nc(-c4ccccc4)oc3C)cc2)C(=O)O)no1` (configuration not stated), 75 to 80 °C. Under `CCCc1c(OCCCOc2ccc(C(=O)OCC)cc2)ccc(C(C)=O)c1O` stands 86 to 87 °C; under `CCCCc1nnc(SCc2ccc(Cl)cc2)n1Cc1ccc(-c2ccccc2-c2nnn[nH]2)cc1`, 92 to 93 °C; under `CCC(=O)Oc1ccc(S(=O)(=O)N2c3ccccc3-c3ccc(F)cc3C2CC)cc1` (configuration not stated), 111 to 112 °C. `Nc1c(F)cc(Cl)c2c1CCCO2` returned a melting point of 47 to 50 °C. The same measure for `C[C@H](NS(=O)(=O)c1ccc(-c2c(C#N)c3cc(C(F)(F)F)cnc3n2-c2ccccc2)nc1)C(F)(F)F`: 186 to 188 °C; for `CC1=C(C(=O)O)C(c2ccccc2Cl)C(c2cccs2)=NN1` (configuration not stated): 188 °C; for `CCOC(=O)c1cc(OC(C)=O)c2c(OC)ccc(OC)c2c1`: 110 to 112 °C. `COc1ccc(C(=O)N2c3ccccc3[C@H](N(C)c3ccccc3)C[C@@H]2C)cc1OC` (relative stereo): the melting point lay in the range of 180 to 181 °C. Under `OCc1ccccc1-c1noc2ccccc12` stands 55 °C. For `CN(C)S(=O)(=O)c1ccc2c(c1)C(=O)c1cc(Br)ccc1CC2`, the melting point was in the range of 142 to 145 °C.
